Measured values published in PubChem BioAssay AID1963862 (Molecular Pharmacology Branch, DTP, NCI, 2024).

System: KRAS patient-derived spheroids with HUVEC/MSC, viability
Test: Anticancer human tumor 941728-121-R-J1-PDC patient-derived lung adenocarcinoma cell line growth inhibition [KRAS2]
Conditions: for IC50: curve of first compound; for viability, T/C: stronger effect = lower value
Procedure, shortened: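 KRAS-mutant tumor cells were grown as spheroids with HUVEC endothelial cells and human MSCs as stroma. Targeted agents were tested alone and with KRAS pathway inhibitors. Doses started at or near clinical Cmax, or 10 microM, descending half-log.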

[1] = second compound 0.1 µM, first compound 0.0001 µM
[2] = second compound 0.1 µM, first compound 0.000316 µM
[3] = second compound 0.1 µM, first compound 0.001 µM
[4] = second compound 0.1 µM, first compound 0.00316 µM
[5] = second compound 0.1 µM, first compound 0.01 µM
[6] = second compound 0.1 µM, first compound 0.0316 µM
[7] = second compound 0.316 µM, first compound 0.0001 µM
[8] = second compound 0.316 µM, first compound 0.000316 µM
[9] = second compound 0.316 µM, first compound 0.001 µM
[10] = second compound 0.316 µM, first compound 0.00316 µM
[11] = second compound 0.316 µM, first compound 0.01 µM
[12] = second compound 0.316 µM, first compound 0.0316 µM
[13] = second compound 1 µM, first compound 0.0001 µM
[14] = second compound 1 µM, first compound 0.000316 µM
[15] = second compound 1 µM, first compound 0.001 µM
[16] = second compound 1 µM, first compound 0.00316 µM
[17] = second compound 1 µM, first compound 0.01 µM
[18] = second compound 1 µM, first compound 0.0316 µM
[19] = second compound 3.16 µM, first compound 0.0001 µM
[20] = second compound 3.16 µM, first compound 0.000316 µM
[21] = second compound 3.16 µM, first compound 0.001 µM
[22] = second compound 3.16 µM, first compound 0.00316 µM
[23] = second compound 3.16 µM, first compound 0.01 µM
[24] = second compound 3.16 µM, first compound 0.0316 µM
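Further: spheroids exposed to agents for seven days before readout.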

Row | Structure (SMILES) | IC50 (second compound 0.1 µM) | IC50 (second compound 0.316 µM) | IC50 (second compound 1 µM) | IC50 (second compound 3.16 µM) | viability, T/C [1] | viability, T/C [2] | viability, T/C [3] | viability, T/C [4] | viability, T/C [5] | viability, T/C [6] | viability, T/C [7] | viability, T/C [8] | viability, T/C [9] | viability, T/C [10] | viability, T/C [11] | viability, T/C [12] | viability, T/C [13] | viability, T/C [14] | viability, T/C [15] | viability, T/C [16] | further results
1 | CC(=O)Nc1cccc(-n2c(=O)n(C3CC3)c(=O)c3c(Nc4ccc(I)cc4F)n(C)c(=O)c(C)c32)c1 + C=CC(=O)N1CCN(c2nc(OCC3CCCN3C)nc3c2CCN(c2cccc4cccc(C)c24)C3)CC1CC#N | < 0.1 nM | < 0.1 nM | < 0.1 nM | < 0.1 nM | 30.9% | 26.7% | 25.4% | 25.5% | 21.2% | 22% | 29.2% | 27.2% | 23.4% | 24.1% | 22.1% | 22.9% | 24% | 22.9% | 19% | 21.3% | IC50 (second compound 0.0316 µM): < 0.1 nM; viability, T/C (second compound 0.0316 µM, first compound 0.0001 µM): 31%; viability, T/C (second compound 0.0316 µM, first compound 0.000316 µM): 26.4%; viability, T/C (second compound 0.0316 µM, first compound 0.001 µM): 25.9%; viability, T/C (second compound 0.0316 µM, first compound 0.00316 µM): 25.4%; viability, T/C (second compound 0.0316 µM, first compound 0.01 µM): 24.2%; viability, T/C (second compound 0.0316 µM, first compound 0.0316 µM): 25.1%; viability, T/C [17]: 20%; viability, T/C [18]: 22.6%; viability, T/C [19]: 0.84%; viability, T/C [20]: 0.35%; viability, T/C [21]: 1.24%; viability, T/C [22]: 0.89%; viability, T/C [23]: 1.14%; viability, T/C [24]: 0.53%
2 | CC(=O)Nc1cccc(-n2c(=O)n(C3CC3)c(=O)c3c(Nc4ccc(I)cc4F)n(C)c(=O)c(C)c32)c1 + CC1OCC2(CCN(c3cnc(Sc4ccnc(N)c4Cl)c(N)n3)CC2)C1N | < 0.1 nM | < 0.1 nM | < 0.1 nM | < 0.1 nM | 47.1% | 40.5% | 40.2% | 39.1% | 36.4% | 27.9% | 38.1% | 39.2% | 34.3% | 30.9% | 26.4% | 23.1% | 32.4% | 31.1% | 24.8% | 22% | IC50 (second compound 10 µM): < 0.1 nM; viability, T/C [17]: 21.4%; viability, T/C [18]: 18.2%; viability, T/C [19]: 21.6%; viability, T/C [20]: 17.2%; viability, T/C [21]: 14.5%; viability, T/C [22]: 15.1%; viability, T/C [23]: 14.5%; viability, T/C [24]: 13.6%; viability, T/C (second compound 10 µM, first compound 0.0001 µM): 15.2%; viability, T/C (second compound 10 µM, first compound 0.000316 µM): 12.9%; viability, T/C (second compound 10 µM, first compound 0.001 µM): 11.8%; viability, T/C (second compound 10 µM, first compound 0.00316 µM): 10.4%; viability, T/C (second compound 10 µM, first compound 0.01 µM): 12.7%; viability, T/C (second compound 10 µM, first compound 0.0316 µM): 10.6%
